Non-standard residues stand in square brackets, D forms with d. Residues, ends and D or L forms follow the SMILES beside them. *: point of attachment. Leu(ol) = CC(C)C[C@H](N)CO; dIva = CC[C@@](C)(N)C(=O)O; Octanoyl = CCCCCCCC(=O)*; Aib = CC(C)(N)C(=O)O
How the values were obtained:
Type in all cases: functional, cell-based
HL-60 = assay: Cytotoxicity against human HL60 cells after 48 hrs by MTT assay; settings: HL-60, 48 h
LS180 = assay: Cytotoxicity against human LS180 cells after 48 hrs by MTT assay; settings: LS180, 48 h
MDA-MB-231 = assay: Cytotoxicity against human MDA-MB-231 cells after 48 hrs by MTT assay; settings: MDA-MB-231, 48 h
A549 = assay: Cytotoxicity against human A549 cells after 48 hrs by MTT assay; settings: A549, 48 h

Row | Structure (SMILES) | IC50 (HL-60) | IC50 (LS180) | IC50 (MDA-MB-231) | IC50 (A549)
1 | CCCCCCCC(=O)NCC(=O)N[C@@H](C)C(=O)N[C@@H](CC(C)C)C(=O)NC(C)(C)C(=O)N[C@@H](C)C(=O)N[C@H](C(=O)N[C@H](CO)CC(C)C)[C@@H](C)CC (Octanoyl-GAL[Aib]AI[Leu(ol)]) | 16 µM | > 30 µM | 16 µM | 17 µM
2 | CCCCCCCC(=O)NCC(=O)N[C@@H](C)C(=O)N[C@@H](CC(C)C)C(=O)N[C@](C)(CC)C(=O)N[C@@H](C)C(=O)N[C@H](C(=O)N[C@H](CO)CC(C)C)[C@@H](C)CC (Octanoyl-GAL[dIva]AI[Leu(ol)]) | 4 µM | 7 µM | 5 µM | 4 µM
3 | CCCCCCCC(=O)NCC(=O)N[C@@H](C)C(=O)N[C@@H](CC(C)C)C(=O)NC(C)(C)C(=O)N[C@@H](CO)C(=O)N[C@H](C(=O)N[C@H](CO)CC(C)C)[C@@H](C)CC (Octanoyl-GAL[Aib]SI[Leu(ol)]) | > 30 µM | > 30 µM | > 30 µM | 30 µM
4 | CC(=O)O[C@H]1C(=O)[C@@]2(C)[C@H]([C@H](OC(=O)c3ccccc3)[C@]3(O)C[C@H](OC(=O)[C@H](O)[C@@H](NC(=O)c4ccccc4)c4ccccc4)C(C)=C1C3(C)C)[C@]1(OC(C)=O)CO[C@@H]1C[C@@H]2O [PACLITAXEL] | – | 0.0028 µM | – | –
5 | CCCCCCCC(=O)NCC(=O)N[C@@H](C)C(=O)N[C@@H](CC(C)C)C(=O)N[C@](C)(CC)C(=O)N[C@@H](CO)C(=O)N[C@H](C(=O)N[C@H](CO)CC(C)C)[C@@H](C)CC | 2 µM | > 30 µM | 4 µM | 30 µM
